Laboratory results: patent publication US6903183B1, “Compositions and methods for regulation of steroidogenesis” (Texas Tech University Health Services Center, priority 1996, dated 2005)
“Also recorded” adds a separate entry of the source. No end group written: not given here.

What was measured:
StAR protein [1] = assay: Immunoblot of StAR protein expression in H295R cells; type: cell-based, human; details: treatment of H295R cells with agonist
Method: FIG. 4. Effect of KN93 on agonist-stimulated aldosterone production and StAR protein expression in H295R cells. […] The medium aldosterone content was determined by R.I.A. and normalized to the tissue culture well protein content. Data points represent the mean ±SE of values from six separate culture wells expressed as fold increase over basal. Significant inhibition relative to the control response is indicated at *p<0.01. StAR protein was examined using equivalent amounts of total cellular lysate (30 μg) by immunoblot analysis as described in the Methods. Results are representative of those obtained from three separate experiments.
For each treatment, cells were solubilized as described above and an equivalent amount of protein (30 μg) for each sample were separated by SDS-PAGE (12.5%) and then electrophoretically transferred to polyvinylidene difluoride membrane as previously described (Clark et al (1994) J. Biol. Chem., 269:2831-322, reference specifically incorporated herein by reference). Immunoblot analysis was as described (Id) using a rabbit sera containing the specific StAR antipeptide antibody (see ANTIBODIES infra) as the primary label and a donkey anti-rabbit IgG conjugated with horseradish peroxidase (Amersham, Arlington Heights, Ill.). The specific signal was detected by chemiluminescence assays using the Renaissance kit from DuPont NEN (Boston, Mass.) and the StAR specific bands were quantitated by BioImage Visage 2000 computer-assisted image analysis (BioImage, Ann Arbor, Mich.). Different exposure times were used to insure linearity.

[2] = tested on: bovine zona glomerulosa cells; assay: Cholesterol content of submitochondrial fractions (cholesterol oxidase assay); type: cell-based
Method: Freshly-prepared bovine zona glomerulosa cells were stimulated with Ang II (10 nM) or submitted to a cytosolic Ca^2+ clamp (600 nM) for 2 h. Mitochondria were isolated and subfractionated into outer membranes (OM), inner membranes (IM) and contact sites (CS). Cholesterol content was determined by the cholesterol oxidase assay.
Freshly-prepared bovine zona gomerulosa cells were stimulated with Ang II (10 nM) or submitted to a cytosolic Ca^2+ clamp (600 nM) for 2 h, as described in Example 9. Mitochondria were isolated and subfractionated into outer membranes (OM), inner membranes (IM) and contact sites (CS). Cholesterol content was determined by the cholesterol oxidase assay, also as described in Example 9.

StAR protein [3] = assay: Western blot of StAR protein in mitochondria of glomerulosa cells; type: cell-based, bovine
StAR protein [4] = assay: Synthesis of StAR protein in MA-10 cells after CRH, dbcAMP or hCG; type: cell-based, mouse

COC(=O)C1=C(C)NC(C)=C([N+](=O)[O-])C1c1ccccc1C(F)(F)F (stereo not drawn) [Bay K, (=)-Bay K 8644]
amount of StAR protein (StAR protein [1]): increased; also recorded: elevated

[Ca+2] [Ca^2+]
cholesterol content of OM ([2]; cytosolic Ca2+ clamp 600 nM, 2 h, n=5): 54±24 % of controls
StAR protein in mitochondrial extracts (StAR protein [3]; Ca2+ stimulation, cycloheximide-sensitive, n=5): 141±14 % of controls

C[C@@H]1C[C@@H]([C@H](O)CC2CC(=O)NC(=O)C2)C(=O)[C@@H](C)C1 [Cycloheximide]
Ca2+-activated cholesterol transfer to IM [2]: significantly reduced
effect on Ang II increase of StAR in IM (StAR protein [3]): prevented

[Cl-].[K+] [K^+, potassium chloride]
amount of StAR protein (StAR protein [1]): increased; also recorded: elevated

CRH: Corticotropin-Releasing Hormone (SEEPPISLDLTFHLLREVLEMARAEQLAQQAHSNRKLMEII; ends and bridges not checked; UniProt P06850 154-194, looked up)
concentration of maximal response (StAR synthesis) (StAR protein [4]): 1 µM
synthesis of the StAR protein (StAR protein [4]): dose-dependent increase
time of maximal response following stimulation (StAR protein [4]; CRH at 1 μM): 4 h
level of StAR synthesis versus maximal doses of CRH or hCG alone (StAR protein [4]; in the presence of hCG): higher level

[Val^5]-Angiotensin II acetate (DRVYVHPF; also: acetate salt; UniProt P01019 25-32, looked up, variant I5V) [Ang II]
OM cholesterol ([2]; Ang II 10 nM, 2 h): No significant changes
cholesterol in contact sites (CS) ([2]; Ang II 10 nM, 2 h, n=3): 172±28 % of controls
amount of StAR protein (StAR protein [1]): increased; also recorded: elevated
StAR protein (StAR protein [3]; Ang II stimulated glomerulosa cells, n=2): 157 % of controls
StAR in IM (StAR protein [3]; Ang II stimulation): increased
